Test results as given in patent publication US20250073241A1, “Combination Therapies Using PRMT5 Inhibitors for the Treatment of Cancer” (MIRATI THERAPEUTICS, INC., priority 2021, published 2025).

Experiments:
Assay type in all cases: in vivo, mice
[1] = tested on: KRAS^G12C and CDKN2A/MTAP^DEL lung tumor xenograft LU99 model; experiment: LU99 lung tumor xenograft, Example 1 (MRTX9768 / palbociclib); conditions: palbociclib 130 mg/kg PO QD
Method: (§1) 2021, incorporated by reference in its entirety.
The CDK4/6 inhibitor used in this example was palbociclib administered at 130mg/kg once a day (QD). Palbociclib is 6-acetyl-8-cyclopentyl-5-methyl-2-[(5-piperazin-1-ylpyridin-2-yl)amino]pyrido[2,3-d]pyrimidin-7-one, and is sold as Ibrance® available from Pfizer Inc., New York, New York.

[2] = tested on: KRAS^G12C and CDKN2A/MTAP^DEL lung tumor xenograft LU99 model; experiment: LU99 lung tumor xenograft, Example 2 (MRTX7477 / palbociclib); conditions: palbociclib 130 mg/kg PO QD
From the text: as §1

HCC4006 xenograft tumors = experiment: HCC4006 lung tumor xenograft, Example 3; conditions: Palbociclib 130 mg/kg PO QD
Method: (§2) The compound of the disclosure was evaluated in several different lung tumor xenograft models: HCC4006, SW1573 PRMT5-044, H1650, and A549 PRMT-034. […] 2021, incorporated by reference in its entirety.

H1650 xenograft tumors = experiment: H1650 lung tumor xenograft, Example 5; conditions: Palbociclib 130 mg/kg PO QD
Method: as §2

[3] = tested on: A549 PRMT-034 xenograft tumors; experiment: A549 PRMT-034 lung tumor xenograft, Example 6; conditions: Palbociclib 130 mg/kg PO QD
Method: as §2

[4] = tested on: PANC-05-04 xenograft tumors; experiment: PANC-05-04 pancreatic tumor xenograft, Example 7; conditions: Palbociclib 130 mg/kg PO QD
Method: (§3) The compound of the disclosure was evaluated in a couple of different pancreatic tumor xenograft models: PANC-05-04 and BXPC-3.

BXPC-3 xenograft tumors = experiment: BXPC-3 pancreatic tumor xenograft, Example 8; conditions: Palbociclib 130 mg/kg PO QD
Method: as §3

MKN45 xenograft tumors = experiment: MKN45 gastric tumor xenograft, Example 9; conditions: Palbociclib 130 mg/kg PO QD
Method: Immunodeficient female nu/nu mice were implanted with 5×10^6 LU99 lung cancer cells in 50% Matrigel. Tumors were measured using calipers until they reached approximately 150-200 mm^3. Animals were randomized to receive A) vehicle (0.5% methylcellulose (4000 cps)/0.2% Tween80 in water), B) a PRMT5 inhibitor, C) CDK4/6 inhibitor, or D) the PRMT5 inhibitor and CDK4/6 inhibitor, all administered orally (PO) for 21 days. Tumor volume was measured twice a week (n=5/treatment group). Average tumor volume and standard error of the mean was calculated and plotted at each study day in GraphPad.

[5] = Day 0, MRTX1719 100 mg/kg PO QD
[6] = Day 5, MRTX1719 100 mg/kg PO QD
[7] = Day 12, MRTX1719 100 mg/kg PO QD
[8] = Day 20, MRTX1719 100 mg/kg PO QD
[9] = Day 3, MRTX1719 100 mg/kg PO QD
[10] = Day 7, MRTX1719 100 mg/kg PO QD
[11] = Day 10, MRTX1719 100 mg/kg PO QD
[12] = Day 14, MRTX1719 100 mg/kg PO QD
[13] = Day 17, MRTX1719 100 mg/kg PO QD

CC(=O)c1c(C)c2cnc(Nc3ccc(N4CCNCC4)cn3)nc2n(C2CCCC2)c1=O [palbociclib, 6-acetyl-8-cyclopentyl-5-methyl-2-[(5-piperazin-1-ylpyridin-2-yl)amino]pyrido[2,3-d]pyrimidin-7-one]
Tumor Volume, Mean ([1]; Day 0, MRTX9768 100 mg/kg PO BID): 184.39 mm^3 | Tumor Volume, Mean ([1]; Day 3, MRTX9768 100 mg/kg PO BID): 247.02 mm^3 | Tumor Volume, Mean ([1]; Day 7, MRTX9768 100 mg/kg PO BID): 355.77 mm^3 | Tumor Volume, Mean ([1]; Day 10, MRTX9768 100 mg/kg PO BID): 482.60 mm^3 | Tumor Volume, Mean ([1]; Day 14, MRTX9768 100 mg/kg PO BID): 731.56 mm^3 | Tumor Volume, Mean ([1]; Day 17, MRTX9768 100 mg/kg PO BID): 914.41 mm^3 | Tumor Volume, Mean ([1]; Day 21, MRTX9768 100 mg/kg PO BID): 1148.44 mm^3 | Tumor Volume ([2]; Day 1, MRTX7477 200 mg/kg PO BID): 209.8 mm^3 | Tumor Volume ([2]; Day 5, MRTX7477 200 mg/kg PO BID): 215.9 mm^3 | Tumor Volume ([2]; Day 8, MRTX7477 200 mg/kg PO BID): 277.3 mm^3 | Tumor Volume ([2]; Day 12, MRTX7477 200 mg/kg PO BID): 359.4 mm^3 | Tumor Volume ([2]; Day 15, MRTX7477 200 mg/kg PO BID): 413.5 mm^3 | Tumor Volume ([2]; Day 19, MRTX7477 200 mg/kg PO BID): 675.9 mm^3 | Tumor Volume ([2]; Day 21, MRTX7477 200 mg/kg PO BID): 827.0 mm^3 | Tumor Volume ([2]; Day −2, MRTX7477 200 mg/kg PO BID): 133.4 mm^3 | Tumor Volume, Mean (HCC4006 xenograft tumors; [5]): 127 mm^3 | Tumor Volume, Mean (HCC4006 xenograft tumors; Day 2, MRTX1719 100 mg/kg PO QD): 155 mm^3 | Tumor Volume, Mean (HCC4006 xenograft tumors; [6]): 143 mm^3 | Tumor Volume, Mean (HCC4006 xenograft tumors; Day 9, MRTX1719 100 mg/kg PO QD): 117 mm^3 | Tumor Volume, Mean (HCC4006 xenograft tumors; [7]): 115 mm^3 | Tumor Volume, Mean (HCC4006 xenograft tumors; Day 16, MRTX1719 100 mg/kg PO QD): 111 mm^3 | Tumor Volume, Mean (HCC4006 xenograft tumors; [8]): 100 mm^3 | Tumor Volume, Mean (H1650 xenograft tumors; [5]): 147 mm^3 | Tumor Volume, Mean (H1650 xenograft tumors; [9]): 268 mm^3 | Tumor Volume, Mean (H1650 xenograft tumors; [10]): 356 mm^3 | Tumor Volume, Mean (H1650 xenograft tumors; [11]): 493 mm^3 | Tumor Volume, Mean (H1650 xenograft tumors; [12]): 480 mm^3 | Tumor Volume, Mean (H1650 xenograft tumors; [13]): 589 mm^3 | Tumor Volume, Mean (H1650 xenograft tumors; [8]): 743 mm^3 | Tumor Volume, Mean ([3]; Day 1, MRTX1719 100 mg/kg PO QD): 118 mm^3 | Tumor Volume, Mean [3, 6]: 134 mm^3 | Tumor Volume, Mean ([3]; Day 8, MRTX1719 100 mg/kg PO QD): 155 mm^3 | Tumor Volume, Mean [3, 7]: 177 mm^3 | Tumor Volume, Mean ([3]; Day 15, MRTX1719 100 mg/kg PO QD): 189 mm^3 | Tumor Volume, Mean ([3]; Day 19, MRTX1719 100 mg/kg PO QD): 179 mm^3 | Tumor Volume, Mean ([3]; Day 22, MRTX1719 100 mg/kg PO QD): 186 mm^3 | Tumor Volume, Mean ([3]; Day 26, MRTX1719 100 mg/kg PO QD): 220 mm^3 | Tumor Volume, Mean ([3]; Day 29, MRTX1719 100 mg/kg PO QD): 255 mm^3 | Tumor Volume, Mean ([3]; Day 34, MRTX1719 100 mg/kg PO QD): 263 mm^3 | Tumor Volume, Mean [4, 5]: 149 mm^3 | Tumor Volume, Mean [4, 9]: 319 mm^3 | Tumor Volume, Mean [4, 10]: 365 mm^3 | Tumor Volume, Mean [4, 11]: 378 mm^3 | Tumor Volume, Mean [4, 12]: 341 mm^3 | Tumor Volume, Mean [4, 13]: 391 mm^3 | Tumor Volume, Mean [4, 8]: 350 mm^3 | Tumor Volume, Mean (BXPC-3 xenograft tumors; Day 0, MRTX1719 50 mg/kg PO QD): 122 mm^3 | Tumor Volume, Mean (BXPC-3 xenograft tumors; Day 3, MRTX1719 50 mg/kg PO QD): 162 mm^3 | Tumor Volume, Mean (BXPC-3 xenograft tumors; Day 6, MRTX1719 50 mg/kg PO QD): 174 mm^3 | Tumor Volume, Mean (BXPC-3 xenograft tumors; Day 9, MRTX1719 50 mg/kg PO QD): 187 mm^3 | Tumor Volume, Mean (BXPC-3 xenograft tumors; Day 13, MRTX1719 50 mg/kg PO QD): 195 mm^3 | Tumor Volume, Mean (BXPC-3 xenograft tumors; Day 16, MRTX1719 50 mg/kg PO QD): 190 mm^3 | Tumor Volume, Mean (BXPC-3 xenograft tumors; Day 20, MRTX1719 50 mg/kg PO QD): 193 mm^3 | Tumor Volume, Mean (MKN45 xenograft tumors; [5]): 106 mm^3 | Tumor Volume, Mean (MKN45 xenograft tumors; [9]): 158 mm^3 | Tumor Volume, Mean (MKN45 xenograft tumors; [10]): 236 mm^3 | Tumor Volume, Mean (MKN45 xenograft tumors; [11]): 264 mm^3 | Tumor Volume, Mean (MKN45 xenograft tumors; [12]): 330 mm^3 | Tumor Volume, Mean (MKN45 xenograft tumors; [13]): 434 mm^3 | Tumor Volume, Mean (MKN45 xenograft tumors; [8]): 474 mm^3
